Laboratory results as given in PMC5668925 (Biochemistry and Biophysics Reports, 2015).
Like-named read-outs stand apart in the source and are kept apart here.

Assays:
[1] = biological target: T1, NT (N-terminal truncated trehalase) (Spodoptera frugiperda, UniProt Q0ZIF5); experiment: glucose release assay, Lineweaver-Burk slope replots; assay type: biochemical; conditions: read-out: Enzyme / NT; competitive; substrate trehalose 0.2-2 mM; pH 6.0, 30 °C
T1 sequence (Q0ZIF5 126-587): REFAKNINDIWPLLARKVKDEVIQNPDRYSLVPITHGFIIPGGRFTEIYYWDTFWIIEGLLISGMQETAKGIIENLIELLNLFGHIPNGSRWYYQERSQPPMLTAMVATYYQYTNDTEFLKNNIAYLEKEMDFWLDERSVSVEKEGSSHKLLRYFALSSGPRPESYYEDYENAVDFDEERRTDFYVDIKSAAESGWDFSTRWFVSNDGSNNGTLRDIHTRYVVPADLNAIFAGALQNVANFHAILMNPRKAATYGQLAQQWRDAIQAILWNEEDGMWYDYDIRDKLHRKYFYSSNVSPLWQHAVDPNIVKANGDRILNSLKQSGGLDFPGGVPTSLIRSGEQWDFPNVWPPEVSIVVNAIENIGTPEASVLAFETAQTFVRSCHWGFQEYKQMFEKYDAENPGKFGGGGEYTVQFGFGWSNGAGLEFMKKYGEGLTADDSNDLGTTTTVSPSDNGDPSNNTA

[2] = biological target: T2, NCT (N- and C-terminal truncated trehalase) (Spodoptera frugiperda, UniProt Q0ZIF5); experiment: as above; assay type: biochemical; conditions: read-out: Enzyme / NCT; competitive; substrate trehalose 0.2-2 mM; pH 6.0, 30 °C
T2 sequence (Q0ZIF5 126-556): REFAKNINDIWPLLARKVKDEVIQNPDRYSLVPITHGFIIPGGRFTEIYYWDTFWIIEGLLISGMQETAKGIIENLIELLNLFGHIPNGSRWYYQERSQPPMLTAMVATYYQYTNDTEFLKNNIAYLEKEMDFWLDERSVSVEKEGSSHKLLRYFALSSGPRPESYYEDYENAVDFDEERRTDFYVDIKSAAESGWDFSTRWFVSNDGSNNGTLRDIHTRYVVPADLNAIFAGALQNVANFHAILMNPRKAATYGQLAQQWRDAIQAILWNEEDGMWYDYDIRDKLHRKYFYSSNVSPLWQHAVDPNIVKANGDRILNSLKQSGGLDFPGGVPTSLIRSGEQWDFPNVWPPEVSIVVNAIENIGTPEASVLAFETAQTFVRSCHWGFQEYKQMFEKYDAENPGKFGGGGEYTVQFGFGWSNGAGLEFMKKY

[3] = biological target: T3, WT (SfTre1, S. frugiperda midgut soluble trehalase, recombinant) (Spodoptera frugiperda, UniProt Q0ZIF5); experiment: as above; assay type: biochemical
T3 sequence (Q0ZIF5 24-587): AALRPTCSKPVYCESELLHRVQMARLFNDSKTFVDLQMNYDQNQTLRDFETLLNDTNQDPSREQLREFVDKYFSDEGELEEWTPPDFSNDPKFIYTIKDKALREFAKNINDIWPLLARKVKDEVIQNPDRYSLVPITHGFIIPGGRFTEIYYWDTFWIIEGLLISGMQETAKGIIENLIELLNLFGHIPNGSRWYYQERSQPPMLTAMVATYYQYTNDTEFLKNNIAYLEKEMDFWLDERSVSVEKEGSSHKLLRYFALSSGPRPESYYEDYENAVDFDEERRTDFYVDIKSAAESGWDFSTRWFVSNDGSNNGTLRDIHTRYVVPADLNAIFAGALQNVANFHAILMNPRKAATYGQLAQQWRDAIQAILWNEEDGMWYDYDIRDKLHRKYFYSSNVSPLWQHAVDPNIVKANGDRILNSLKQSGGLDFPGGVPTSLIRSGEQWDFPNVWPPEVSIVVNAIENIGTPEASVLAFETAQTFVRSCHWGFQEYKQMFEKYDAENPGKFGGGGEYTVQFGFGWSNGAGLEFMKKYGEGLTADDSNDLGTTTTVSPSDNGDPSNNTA

[4] = biological target: T4, NCT (N- and C-terminal truncated trehalase) (Spodoptera frugiperda, UniProt Q0ZIF5, C-[…]/DEL1-102/LAST/RESIDUES/[…]); experiment: as above; assay type: biochemical
T4 sequence (Q0ZIF5 126-556): T2 sequence (Q0ZIF5 126-556)

[5] = biological target: T5, NT (N-terminal truncated trehalase) (Spodoptera frugiperda, UniProt Q0ZIF5, DEL1-102); experiment: as above; assay type: biochemical
T5 sequence (Q0ZIF5 126-587): T1 sequence (Q0ZIF5 126-587)

[6] = biological target: T3, WT (SfTre1, S. frugiperda midgut soluble trehalase, recombinant); experiment: as above; assay type: biochemical; remark: listed apart in the source
[7] = biological target: T4, NCT (N- and C-terminal truncated trehalase); experiment: as above; assay type: biochemical; remark: listed apart in the source
purified protein = substrate: OC[C@H]1O[C@H](O[C@H]2O[C@H](CO)[C@@H](O)[C@H](O)[C@H]2O)[C@H](O)[C@@H](O)[C@@H]1O; experiment: purified protein; conditions: pH 6.0 citrate-sodium phosphate, 30 °C

COC1OC(CO)C(O)C(O)C1O (stereo not drawn) [methyl α-mannoside]
Ki [1]: 17000 ± 2000 µM
Ki [2]: 16000 ± 1000 µM
Ki ([3]; read-out: Enzyme / WT, competitive, substrate trehalose 0.2-2 mM, pH 6.0, 30 °C): 17000 ± 1000 µM

OC[C@H]1NC[C@H](O)[C@@H](O)[C@@H]1O [1-deoxynojirimycin]
Ki [4]: 0.8 ± 0.2 µM
Ki [3]: 1 ± 0.24 µM

N#C[C@H](O[C@@H]1O[C@H](CO[C@@H]2O[C@H](CO)[C@@H](O)[C@H](O)[C@H]2O)[C@@H](O)[C@H](O)[C@H]1O)c1ccccc1 [amygdalin]
Ki [5]: 400 ± 100 µM
Ki [6]: 280 ± 70 µM
Ki [7]: 490 ± 90 µM

B1: WT (SfTre1, S. frugiperda midgut soluble trehalase, recombinant) (Spodoptera frugiperda) (protein)
chain: T3 sequence (Q0ZIF5 24-587)
kcat/Km (purified protein): 74500 M⁻¹ s⁻¹
